Laboratory results: patent publication US20250073177A1, “LIPID NANOPARTICLES FOR OLIGONUCLEOTIDE DELIVERY” (ZIPHIUS NV, priority 2021, published 2025)

Columns and labels:
[1] = LNP particle size, polydispersity index and charge by Zeta Sizer; type: physicochemical; conditions: LNP lipid:DOPE:Cholesterol:DMG-PEG 35:20:43.5:1.5, N/P about 40/1, firefly luciferase saRNA
Method: Cationic lipids, DOPE, Cholesterol and DMG-PEG lipid were solubilized in ethanol or DMSO at a molar ratio of 35:20:43.5:1.5 and a concentration of 100:25:20:25 μg/μL for C12-200 or 170:25:20:25 μg/μL for the comparator lipids. Lipid nanoparticles (LNP) were prepared by targeting an N/P ratio of approximately 40/1 with saRNA. Briefly, the firefly luciferase saRNA of approximately 9659 nucleotides was diluted to 0.5 mg/mL in 5 mM citrate buffer, pH 4.5. Microfluidic mixer (Ignite from Precision Nanosystems, California, USA) was used to mix the lipid solution with the saRNA aqueous solution at a ratio of about 1:3 (vol/vol) with total flow rates above 10 ml/min. The ethanol was then removed, and the external buffer replaced with 10 mM TRIS-HCL, PH 7.4, by dialysis. Finally, the lipid nanoparticles were filtered through a 0.2 μm pore sterile filter. Lipid nanoparticle particle size was 50-150 nm diameter and polydispersity index (PI) of 0.1-0.4 as determined by Zeta Sizer (Malvern Panalytical, UK). The charge of the formulation was also measured by Zeta Sizer and ranged between 20 to −20 mV.

[2] = saRNA encapsulation in LNP, Quant-IT RiboGreen assay; type: physicochemical; conditions: LNP with firefly luciferase saRNA, RiboGreen with or without Triton X-100
Method: The saRNA loading in LNP formulations was quantified using a Quant-IT RiboGreen assay (Thermo Fisher Scientific, Waltham, Massachusetts, USA) as previously described. 14 samples were diluted tenfold in 1×Tris HCL-EDTA (TE) buffer (10 mM Tris-HCL, 1 mM EDTA, pH 7.5) with or without 2% (v/v) Triton X-100 (Sigma-Aldrich, Saint Louis, Missouri, USA). Standard solutions were also prepared in 1×TE with or without 2% (v/v) Triton X-100 to account for any variation in fluorescence. The assay was performed according to the manufacturer's protocol. Samples were loaded on a black 96-well plate and analysed for fluorescence on a microplate reader (Tecan Infinite® 200 PRO) at an excitation of 485 nm and emission at 528 nm. Encapsulation efficiency was calculated between 80-100%. See Table 3 below for the results obtained.

[3] = Body weight of mice after injection of LNP-formulated luciferase saRNA; type: in vivo; conditions: 1 μg luciferase saRNA in LNP
Method: (§1) Female SWISS mice (6 weeks old) were purchased from Janvier Laboratories (Paris, France) and kept in individually ventilated cages with access to food and water ad libitum. Mice were anesthetized with isoflurane (Zoetis, Louvain-La-Neuve, Belgium) (5% for induction and 2% for maintenance) and intramuscularly injected with a total of 1 μg in 100 μL Tris-HCL (50 μL per leg) LNP-formulated luciferase saRNA (for each group n=7). The expression of the luciferase induced bioluminescence was measured via non-invasive In vivo bioluminescent imaging (In vivo Imaging System (IVIS) Lumina III, Perkin Elmer, Waltham, Massachusetts, USA), 10 minutes after subcutaneous injection of 200 μL of D-luciferin (GoldBio, Saint Louis, Missouri, USA, #LUCK-1G) were measured in day 0 (before injection), day 1, day 3, day 5, day 7, day 10, day 15 and day 20.
See Tables 4 and FIG. 1 for the results showing higher expression of the saRNA compared to prior art compounds at day 15 onwards when administered in LNPs comprising compounds of the invention. Table 5 supports good tolerability of the compounds of the invention.

Female SWISS mice = assay: In vivo bioluminescent imaging of LNP-formulated luciferase saRNA expression; conditions: 1 μg luciferase saRNA in LNP
Method: as §1

[4] = Day 0 (before injection), intramuscular

Polydispersity Index (PI) [1] | Z-average [1] [nm] | Zetapotential [1] [mV] | Encapsulation [2] [%] | SMILES | Weight [3, 4] [g] | Weight ([3]; Day 1, intramuscular) [g] | Weight ([3]; Day 3, intramuscular) [g] | Weight ([3]; Day 5, intramuscular) [g] | Weight ([3]; Day 7, intramuscular) [g] | Weight ([3]; Day 10, intramuscular) [g] | Weight ([3]; Day 15, intramuscular) [g] | Weight ([3]; Day 20, intramuscular) [g] | Bioluminescence expression of LNPs (Female SWISS mice; [4]) | Bioluminescence expression of LNPs (Female SWISS mice; Day 1, intramuscular) | Bioluminescence expression of LNPs (Female SWISS mice; Day 3, intramuscular) | Bioluminescence expression of LNPs (Female SWISS mice; Day 5, intramuscular) | Bioluminescence expression of LNPs (Female SWISS mice; Day 7, intramuscular) | Bioluminescence expression of LNPs (Female SWISS mice; Day 10, intramuscular) | Bioluminescence expression of LNPs (Female SWISS mice; Day 15, intramuscular) | Bioluminescence expression of LNPs (Female SWISS mice; Day 20, intramuscular)
0.10 | 81.42 | 2.78 | 100.49 | CCCCCCCCCCC(O)CN(CCN1CCN(CCN(CC(O)CCCCCCCCCC)CC(O)CCCCCCCCCC)CC1)CCN(CC(O)CCCCCCCCCC)CC(O)CCCCCCCCCC (stereo not shown) [Compound C12-200, 1,1′-((2-(4-(2-((2-(bis (2-hydroxydodecyl)amino)ethyl) (2-hydroxydodecyl)amino)ethyl)piperazin-1-yl)ethyl)azanediyl)bis (dodecan-2-ol), reference compound] | 28.61 | 27.17 | 28.62 | 28.98 | 28.97 | 29.23 | 30.16 | 31.23 |  |  |  |  |  |  |  | 
0.23 | 81.44 | −20.01 | 99.04 | CCCCCCC(CCCC)C(=O)OCCCCN(CCCCOC(=O)C(CCCC)CCCCCC)CCN1CCN(CCOC(=O)C(CCCC)CCCCCC)CC1 (stereo not shown) [Compound 8-41, ((2-(4-(2-((2-butyloctanoyl)oxy)ethyl)piperazin-1-yl)ethyl)azanediyl)bis(butane-4,1-diyl) bis(2-butyloctanoate)] | 28.03 | 27.31 | 28.49 | 29.04 | 28.69 | 29.24 | 30.24 | 31.19 | 5.33E+04 | 5.42E+07 | 7.43E+08 | 6.54E+08 | 4.67E+08 | 9.17E+06 | 1.88E+06 | 1.88E+06
0.16 | 85.72 | −12.65 | 98.64 | CCCCCCC(CCCC)C(=O)NCCN1CCN(CCN(CCCCOC(=O)C(CCCC)CCCCCC)CCCCOC(=O)C(CCCC)CCCCCC)CC1 (stereo not shown) [Compound 8-27, ((2-(4-(2-(2-butyloctanamido)ethyl)piperazin-1-yl)ethyl)azanediyl)bis(butane-4,1-diyl) bis(2-butyloctanoate)] | 27.07 | 26.01 | 27.57 | 28.86 | 28.40 | 28.67 | 29.44 | 30.57 | 8.55E+04 | 1.40E+08 | 9.90E+08 | 7.71E+08 | 2.35E+08 | 6.86E+06 | 7.44E+05 | 8.29E+05
0.16 | 70.96 | 9.07 | 99.03 | CCCCCCCCCCCCCCOC(=O)CCN(CCC(=O)OCCCCCCCCCCCCCC)CCN1CCN(CCN(CCC(=O)OCCCCCCCCCCCCCC)CCC(=O)OCCCCCCCCCCCCCC)CC1 [Comparator 1, reference compound] | 26.56 | 25.99 | 27.21 | 27.59 | 27.09 | 27.17 | 29.43 | 30.11 |  |  |  |  |  |  |  | 
